Patent US7297705B2, “Azaindolylalkylamine derivatives as 5-hydroxytryptamine-6 ligands” (Wyeth, priority 2001, dated 2007)
Like-named read-outs stand apart in the source and are kept apart here.

Biological target: T1, human cloned 5-HT6 receptors (Homo sapiens, UniProt P50406)
T1 construct: expressed in transfected cells; host or cells: Hela cells
Test: 5-HT6 binding affinity, [3H]-LSD displacement on membranes of Hela cells expressing human cloned 5-HT6 receptors
Procedure: Comparative Evaluation of 5-HT6 Binding Affinity of Test Compounds
The affinity of test compounds for the serotonin 5-HT6 receptor is evaluated in the following manner. Cultured Hela cells expressing human cloned 5-HT6 receptors are harvested and centrifuged at low speed (1,000×g) for 10.0 min to remove the culture media. The harvested cells are suspended in half volume of fresh physiological phosphate buffered saline solution and recentrifuged at the same speed. This operation is repeated. The collected cells are then homogenized in ten volumes of 50 mM Tris.HCl (pH 7.4) and 0.5 mM EDTA. The homogenate is centrifuged at 40,000×g for 30.0 min and the precipitate is collected. The obtained pellet is resuspended in 10 volumes of Tris.HCl buffer and recentrifuged at the same speed. The final pellet is suspended in a small volume of Tris.HCl buffer and the tissue protein content is determined in aliquots of 10-25 μl volumes. Bovine Serum Albumin is used as the standard in the protein determination according to the method described in Lowry et al., J. Biol. Chem., 193:265 (1951). The volume of the suspended cell membranes is adjusted to give a tissue protein concentration of 1.0 mg/ml of suspension. The prepared membrane suspension (10 times concentrated) is aliquoted in 1.0 ml volumes and stored at −70° C. until used in subsequent binding experiments.
The reaction is allowed to proceed in the dark for 120 min at room temperature, at which time, the bound ligand-receptor complex is filtered off on a 96 well unifilter with a Packard Filtermate® 196 Harvester. The bound complex caught on the filter disk is allowed to air dry and the radioactivity is measured in a Packard TopCount® equipped with six photomultiplier detectors, after the addition of 40.0 μl Microscint®-20 scintillant to each shallow well. The unifilter plate is heat-sealed and counted in a PackardTopCount® with a tritium efficiency of 31.0%.
Binding in the presence of varying concentrations of test compound is expressed as a percentage of specific binding in the absence of test compound. The results are plotted as log % bound versus log concentration of test compound. […] A linear regression line of data points is plotted, from which the IC50 value is determined and the Ki value is determined based upon the following equation: Ki=IC50/(1+L/KD) where L is the concentration of the radioactive ligand used and KD is the dissociation constant of the ligand for the receptor, both expressed in nM.

T1 sequence (P50406 whole entry): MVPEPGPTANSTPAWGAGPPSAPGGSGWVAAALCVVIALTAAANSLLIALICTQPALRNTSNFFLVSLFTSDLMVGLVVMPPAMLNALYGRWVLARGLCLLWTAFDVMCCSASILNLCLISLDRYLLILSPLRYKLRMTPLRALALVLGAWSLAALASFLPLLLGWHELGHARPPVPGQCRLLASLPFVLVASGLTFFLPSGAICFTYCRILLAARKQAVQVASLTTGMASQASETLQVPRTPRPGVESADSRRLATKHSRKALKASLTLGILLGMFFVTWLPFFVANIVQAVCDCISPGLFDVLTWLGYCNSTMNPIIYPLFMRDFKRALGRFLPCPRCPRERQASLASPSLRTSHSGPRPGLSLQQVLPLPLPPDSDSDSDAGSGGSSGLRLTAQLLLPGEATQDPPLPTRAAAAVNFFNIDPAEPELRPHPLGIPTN

Ki (read-out: 5-HT6 Binding Ki) [nM] | SMILES | Ki [nM] | further results
164 | NCCc1cn(S(=O)(=O)c2ccccc2)c2ccncc12 [Example 44] | – | –
– | NCCc1cn(S(=O)(=O)c2cccc(F)c2)c2ncccc12 [Example 116] | 13.4 | –
39.3 | NCCc1cn(S(=O)(=O)c2ccccc2F)c2ncccc12 [Example 115] | – | –
– | CC(C)c1ccc(S(=O)(=O)n2cc(CCN)c3cccnc32)cc1 [Example 93] | 39.3 | –
– | CN(C)CCc1cn(S(=O)(=O)c2cc(Cl)sc2Cl)c2ncccc12 [Example 152] | 53.7 | –
– | CN(C)CCc1cn(S(=O)(=O)c2ccccc2)c2ncccc12 [Example 94] | 40 | –
– | NCCc1cn(S(=O)(=O)c2ccc(C(F)(F)F)cc2Cl)c2cccnc12 [Example 14] | 15 | –
19.6 | CN(C)CCc1cn(S(=O)(=O)c2ccc3ccccc3c2)c2ncccc12 [Example 96] | – | –
– | NCCc1cn(S(=O)(=O)c2cccc(C(F)(F)F)c2)c2ncccc12 [Example 90] | 21 | –
43 | NCCc1cn(S(=O)(=O)c2ccccc2)c2ncccc12 [Example 80] | – | –
– | NCCc1cn(S(=O)(=O)c2ccccc2F)c2cccnc12 [Example 24] | 5.3 | –
40 | NCCc1cn(S(=O)(=O)c2c(Cl)sc(Cl)c2Br)c2ncccc12 [Example 136] | – | –
– | Cc1cc(S(=O)(=O)n2cc(CCN(C)C)c3cccnc32)c(C)cc1Cl [Example 146] | 31.7 | –
170 | NCCc1cn(S(=O)(=O)c2cccc(F)c2)c2ccncc12 [Example 41] | – | –
90.7 | NCCc1cn(S(=O)(=O)c2c(Cl)nc3sc(Cl)cn23)c2ncccc12 [Example 158] | – | –
– | COc1ccc(S(=O)(=O)n2cc(CCN(C)C)c3cccnc32)cc1OC [Example 99] | 76.6 | –
– | Cc1ccc(S(=O)(=O)n2cc(CCN)c3cccnc32)cc1Cl [Example 111] | 3.6 | –
– | NCCc1cn(S(=O)(=O)c2c(Cl)nc3sccn23)c2cccnc12 [Example 11] | 0.8 | –
– | NCCc1cn(S(=O)(=O)c2ccc(F)c(F)c2)c2cccnc12 [Example 15] | 16 | –
– | COc1cccc(S(=O)(=O)n2cc(CCN)c3cccnc32)c1 [Example 68, 2-[1-(3-Methoxybenzenesulfonyl)-1H-pyrrolo[2,3-b]pyridin-3-yl]ethylamine] | 33.3 | –
– | NCCc1cn(S(=O)(=O)c2ccc(F)c(Cl)c2)c2ncccc12 [Example 109] | 61.3 | –
– | NCCc1cn(S(=O)(=O)c2ccccc2Cl)c2cccnc12 [Example 1, 2-[1-(2-Clorobenzensulfonyl)-1H-pyrrolo[3,2-b]pyridin-3-yl]ethylamine] | – | Ki ([3H]-LSD 3.0 nM, 120 min at room temperature, Ki=IC50/(1+L/KD), read-out: 5-HT6 Binding Ki): 5 nM
– | Cc1ccc(C)c(S(=O)(=O)n2cc(CCN)c3cccnc32)c1 [Example 108] | 23.7 | –

Ki (read-out: 5-HT6 Binding Ki) [nM] | SMILES | Ki [nM] | further results
– | NCCc1cn(S(=O)(=O)c2cccc(Cl)c2Cl)c2cccnc12 [Example 23] | 2.1 | –
– | NCCc1cn(S(=O)(=O)c2cc(Cl)c(Cl)s2)c2ncccc12 [Example 131] | 19.7 | –
1.6 | NCCc1cn(S(=O)(=O)c2cccc(Cl)c2)c2cccnc12 [Example 16] | – | –
69.7 | NCCc1cn(S(=O)(=O)c2cccc3nsnc23)c2ncccc12 [Example 142] | – | –
– | CN(C)CCc1cn(S(=O)(=O)c2ccc(Cl)s2)c2ncccc12 [Example 151] | 13 | –
– | CN(C)CCc1cn(S(=O)(=O)c2ccccc2F)c2ncccc12 [Example 147] | 47.3 | –
– | NCCc1cn(S(=O)(=O)c2ccc(F)c(F)c2)c2ncccc12 [Example 118] | 89.3 | –
– | NCCc1cn(S(=O)(=O)c2cccc(Cl)c2)c2ncccc12 [Example 121] | 6 | –
– | NCCc1cn(S(=O)(=O)c2c(Cl)nc3sc(Cl)cn23)c2cccnc12 [Example 26] | 7.3 | –
– | CN(C)CCc1cn(S(=O)(=O)c2cccc(C(F)(F)F)c2)c2ncccc12 [Example 104] | 29.3 | –
– | COc1ccc(S(=O)(=O)n2cc(CCN)c3cccnc32)cc1 [Example 84] | 74.6 | –
– | NCCc1cn(S(=O)(=O)c2ccc3ccccc3c2)c2ncccc12 [Example 82] | 12 | –
– | COc1cccc(S(=O)(=O)n2cc(CCN)c3ncccc32)c1 [Example 17] | 2.9 | –
16.3 | NCCc1cn(S(=O)(=O)c2cc(Br)c(Cl)s2)c2ncccc12 [Example 135] | – | –
– | NCCc1cn(S(=O)(=O)c2cnc3sccn23)c2cccnc12 [Example 18] | 1.6 | –
2 | NCCc1cn(S(=O)(=O)c2ccc(Cl)s2)c2cccnc12 [Example 5] | – | –
– | NCCc1cn(S(=O)(=O)c2ccc(F)cc2Cl)c2ncccc12 [Example 110] | 38.3 | –
52 | NCCc1cn(S(=O)(=O)c2cc(Cl)sc2Cl)c2ncccc12 [Example 132] | – | –
– | NCCc1cn(S(=O)(=O)c2cnc3sccn23)c2ccncc12 [Example 39] | 47 | –
4.5 | NCCc1cn(S(=O)(=O)c2ccccc2)c2cccnc12 [Example 19] | – | –
– | NCCc1cn(S(=O)(=O)c2cccc(C(F)(F)F)c2)c2cccnc12 [Example 13] | 5 | –
– | NCCc1cn(S(=O)(=O)c2ccccc2C(F)(F)F)c2ncccc12 [Example 89] | 38.3 | –
– | NCCc1cn(S(=O)(=O)c2cccc(F)c2)c2cccnc12 [Example 20] | 3.3 | –

Ki (read-out: 5-HT6 Binding Ki) [nM] | SMILES | Ki [nM] | further results
– | NCCc1cn(S(=O)(=O)c2cccc(Cl)c2Cl)c2ccncc12 [Example 47] | 32.7 | –
42.3 | NCCc1cn(S(=O)(=O)c2cccc3nonc23)c2ncccc12 [Example 141] | – | –
– | NCCc1cn(S(=O)(=O)c2c(Cl)nc3sccn23)c2ccncc12 [Example 35, 2-{[1-(6-Chloroimidazo[2,1-b]thiazol-5-yl)sulfonyl]-1H-pyrrolo[3,2-c]pyridin-3-yl)ethylamine] | 15.7 | –
25 | NCCc1cn(S(=O)(=O)c2c(Cl)nc3ccccn23)c2ncccc12 [Example 137] | – | –
– | NCCc1cn(S(=O)(=O)c2ccccc2Cl)c2ncccc12 [Example 120] | 27 | –
– | CN(C)CCc1cn(S(=O)(=O)c2cccc(F)c2)c2ncccc12 [Example 148] | 28 | –
– | CN(C)CCc1cn(S(=O)(=O)c2ccc(F)cc2Cl)c2ncccc12 [Example 144] | 56.3 | –
– | Cc1cccc(S(=O)(=O)n2cc(CCN)c3ncccc32)c1 [Example 22] | 2.4 | –
– | NCCc1cn(S(=O)(=O)c2sc(Cl)cc2Br)c2ncccc12 [Example 134] | 29 | –
– | CN(C)CCc1cn(S(=O)(=O)c2c(Cl)nc3ccccn23)c2ncccc12 [Example 153] | 57.3 | –
– | Cc1cc(S(=O)(=O)n2cc(CCN)c3cccnc32)c(C)cc1Cl [Example 114] | 17.7 | –
– | COc1cccc(S(=O)(=O)n2cc(CCN(C)C)c3cccnc32)c1 [Example 97] | 24.6 | –
– | N#Cc1ccccc1S(=O)(=O)n1cc(CCN)c2cccnc21 [Example 87] | 79 | –
– | NCCc1cn(S(=O)(=O)c2ccc(Cl)s2)c2ncccc12 [Example 129] | 11.7 | –
– | NCCc1cn(S(=O)(=O)c2ccc(Br)s2)c2ncccc12 [Example 130] | 8.5 | –
– | NCCc1cn(S(=O)(=O)c2ccc(Cl)s2)c2ccncc12 [Example 43] | 47.5 | –
– | NCCc1cn(S(=O)(=O)c2cc(Br)c(Br)s2)c2ncccc12 [Example 133] | 10.7 | –
– | NCCc1cn(S(=O)(=O)c2c(Cl)nc3sccn23)c2ncccc12 [Example 154] | 7.4 | –
– | NCCc1cn(S(=O)(=O)c2ccc(Cl)cc2)c2ncccc12 [Example 122] | 50 | –
– | Cc1ccc(F)cc1S(=O)(=O)n1cc(CCN)c2cccnc21 [Example 112] | 38.7 | –
3.5 | NCCc1cn(S(=O)(=O)c2cccc(Br)c2)c2cccnc12 [Example 25] | – | –
– | NCCc1cn(S(=O)(=O)c2ccc(N)cc2)c2ncccc12 [Example 83] | 2.4 | –
– | CN(C)CCc1cn(S(=O)(=O)c2ccccc2C(F)(F)F)c2ncccc12 [Example 103] | 38 | –

SMILES | Ki (read-out: 5-HT6 Binding Ki) [nM] | Ki [nM] | further results
NCCc1cn(S(=O)(=O)c2cccc(C(F)(F)F)c2)c2ccncc12 [Example 46] | 173 | – | –
COc1ccc(Cl)cc1S(=O)(=O)n1cc(CCN)c2cccnc21 [Example 113] | 186 | – | –
COc1cccc(S(=O)(=O)n2cc(CCN)c3cnccc32)c1 [Example 42] | 198 | – | –
NCCc1cn(S(=O)(=O)c2ccc(F)cc2F)c2ncccc12 [Example 71] | 113 | – | –
NCCc1cn(S(=O)(=O)c2cccc(Cl)c2)c2ccncc12 [Example 40] | 110 | – | –
Cc1cccc(S(=O)(=O)n2cc(CCN)c3cnccc32)c1 [Example 45] | 152 | – | –
CC(C)(C)c1ccc(S(=O)(=O)n2cc(CCN)c3cccnc32)cc1 [Example 91] | 114 | – | –
COc1ccc(S(=O)(=O)n2cc(CCN)c3cccnc32)cc1OC [Example 85] | 106 | – | –
